Values quoted from earlier work in patent publication US20220401207A1, “DEVICES, SYSTEMS, AND METHODS FOR TREATMENT OF DUCT OCCLUSION” (Purdue Research Foundation, priority 2021, published 2022).

Assays:
cancerous mass = settings: drug-eluting stent, drug comprises gemcitabine
gall bladder = settings: opossums, CCK infused into the body
[1] = system: bacteria isolated from bile; settings: number of bile cultures, N-acetyl-cysteine n = 12, co-trimoxazole n = 10

Molecule | Bile samples cultured with Clostridium species [1] | Bile samples cultured with Enterobacter species [1] | Bile samples cultured with Enterococcus species [1] | Bile samples cultured with K. oxytoca [1] | Bile samples cultured with K. pneumonia [1] | Bile samples cultured with Klebsiella species [1] | other results
Nc1ccn([C@@H]2O[C@H](CO)[C@@H](O)C2(F)F)c(=O)n1 [gemcitabine] | – | – | – | – | – | – | Life span of subjects (cancerous mass): increased life spans; Tumor size (cancerous mass): decreased tumor size
cholecystokinin [CCK] | – | – | – | – | – | – | Compliance (and thus the pressure) of the gall bladder (gall bladder): drops
Co-trimoxazole | 2 | 2 | 6 | 1 | 4 | 5 | Bile samples cultured with Bacteroides fragilis [1]: 1; Bile samples cultured with Candida species [1]: 2; Bile samples cultured with Pseudomonas aeruginosa [1]: 1; Bile samples cultured with Staphylococcus epidermidis [1]: 1
CC(=O)N[C@@H](CS)C(=O)O [N-acetyl-cysteine] | 5 | 6 | 10 | 5 | 3 | 8 | Bile samples cultured with Citrobacter freundii [1]: 1; Bile samples cultured with Proteus species [1]: 1; Bile samples cultured with Escherichia coli ([1]; **p < 0.05): 6; Bile samples cultured with Streptococcus species ([1]; **p < 0.05): 4
